Starred links: 1 amine or outer side, 2 acyl side, 3 side chain; linkers in the order of their positions; H or OH if unused. Non-standard residues stand in square brackets, D forms with d. Residues, ends and D or L forms follow the SMILES beside them. *: point of attachment. X3 = O=C(N[C@H]1C[C@@H](C(=O)[*:2])N([*:1])C1)c1ccccc1; Arg(Nω,Nω'-propylene) = N[C@@H](CCCNC1=NCCCN1)C(=O)O; Phe(4-CF3) = N[C@@H](Cc1ccc(C(F)(F)F)cc1)C(=O)O; Ala(pyrazol-1-yl) = N[C@@H](Cn1cccn1)C(=O)O; dPro(cis-4-NH2) = N[C@H]1CN[C@@H](C(=O)O)C1; X4 = Cn1ccnc1CNCCC[C@H](N[*:1])C(=O)[*:2]; Morpholine(3S-CO) = O=C(O)[C@@H]1COCCN1; Pro(4R-NH2) = N[C@H]1CN[C@H](C(=O)O)C1; 1Nal = N[C@@H](Cc1cccc2ccccc12)C(=O)O; 2Nal = N[C@@H](Cc1ccc2ccccc2c1)C(=O)O; Pro(3S-OH) = O=C(O)[C@H]1NCC[C@@H]1O; cisHyp = O=C(O)[C@@H]1C[C@H](O)CN1; Pyrazinecarbonyl = O=C(c1cnccn1)*; dCit = NC(=O)NCCC[C@@H](N)C(=O)O; 3Pal = N[C@@H](Cc1cccnc1)C(=O)O; Tic = O=C(O)[C@@H]1Cc2ccccc2CN1; d3Pal = N[C@H](Cc1cccnc1)C(=O)O; dHyp = O=C(O)[C@H]1C[C@H](O)CN1; Agb = N=C(N)NCC[C@H](N)C(=O)O; dPip = O=C(O)[C@H]1CCCCN1; hSer = N[C@@H](CCO)C(=O)O; Nle = CCCC[C@H](N)C(=O)O; Orn = NCCC[C@H](N)C(=O)O; Abu = CC[C@H](N)C(=O)O; Bn = c1ccc(C*)cc1
target: T1, CXCR7 (Homo sapiens, UniProt P25106); assay: CXCR7 β-arrestin recruitment assay (PathHunter CHO-CXCR7, DiscoverX), agonistic assay; format: cell-based; conditions: not given
T1 construct: host or cells: CHO (PathHunter CHO-CXCR7 β-arrestin cells)
T1 sequence (P25106 whole entry): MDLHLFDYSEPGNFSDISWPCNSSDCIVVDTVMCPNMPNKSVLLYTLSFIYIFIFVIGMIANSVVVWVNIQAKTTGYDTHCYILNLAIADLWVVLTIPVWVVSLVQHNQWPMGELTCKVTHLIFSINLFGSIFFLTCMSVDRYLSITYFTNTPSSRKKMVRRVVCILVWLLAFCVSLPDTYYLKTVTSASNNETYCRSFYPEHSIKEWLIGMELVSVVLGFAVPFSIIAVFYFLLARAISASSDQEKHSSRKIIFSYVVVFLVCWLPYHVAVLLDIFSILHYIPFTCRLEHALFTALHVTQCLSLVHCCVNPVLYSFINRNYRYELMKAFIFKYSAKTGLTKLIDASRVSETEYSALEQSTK
Procedure: Lyophilized peptides were weighed on a Microbalance (Mettler MX5) and dissolved in DMSO to a final concentration of 10 mM unless otherwise stated. Stock solutions were kept at +4° C., and protected from light.
2.2 CXCR7 β-Arrestin Recruitment Assay
The PathHunter CHO-CXCR7 (DiscoverX) assay was performed according to the manufacturer's protocol. In brief, CHO CXCR7 β-arrestin cells were seeded at a density of 5000 cells per well in 40 μl of F12 medium in black 96-half volume well culture plates and incubated overnight at 37° C. in a humidified atmosphere with 5% CO2. The next day, serial dilutions of PEM compounds have been prepared in DMSO and subsequently diluted in HBSS buffer containing 0.1% BSA.
For agonistic assay, 10 μl of compound solution or a solution of stromal cell-derived factor-1 (SDF-1) as positive control was added to the cells with a final DMSO concentration of 1% (v/v). The plate was incubated for 90 min at 37° C. in 5% CO2 incubator with gentle shaking (300 rpm) before addition of 40 μl of detection reagent per well. Reaction was developed for 90 min at room temperature in the dark with shaking, and chemiluminescence was measured with a Topcount (Perkin Elmer) luminescence counter.

Structure (SMILES)	EC50
O=C(N[C@H]1C[C@H]2C(=O)N[C@@H](Cc3c[nH]cn3)C(=O)N[C@H](Cc3c[nH]c4ccccc34)C(=O)N[C@@H](Cc3c[nH]cn3)C(=O)N[C@@H](Cc3c[nH]c4ccccc34)C(=O)N3CCC[C@@H]3C(=O)N2C1)c1ccccc1 [Ex. 51, cyclo(-His-^DTrp-His-Trp-^DPro-Pro((4S)NHBz)-)] (cyclo(HW[dP][X3]H[dW]))	413 ± 225 nM

same assay, conditions: agonistic assay; CHO CXCR7 β-arrestin cells; 90 min at 37° C.; chemiluminescence; read-out: β-Arrestin EC50

Structure (SMILES)	EC50
N=C(N)NCCC[C@@H]1NC(=O)[C@H](Cc2c[nH]c3ccccc23)NC(=O)[C@@H](Cc2cccnc2)NC(=O)[C@H](Cc2c[nH]c3ccccc23)NC(=O)[C@@H]2Cc3ccccc3CN2C(=O)[C@H]2C[C@@H](N)CN2C1=O [compound 38, cyclo(-Trp-^D3Pal-Trp-Arg-^DPro((4R)NH2)-Tic-)] (cyclo(R[dPro(cis-4-NH2)][Tic]W[d3Pal]W))	6.1 ± 1.5 nM
N=C(N)NCCC[C@@H]1NC(=O)[C@H](Cc2c[nH]c3ccccc23)NC(=O)[C@@H](Cc2ccccc2)NC(=O)[C@H](Cc2cccnc2)NC(=O)[C@@H]2Cc3ccccc3CN2C(=O)[C@H]2C[C@@H](N)CN2C1=O [compound 37, cyclo(-3Pal-^DPhe-Trp-Arg-^DPro((4R)NH2)-Tic-)] (cyclo([3Pal][dF]WR[dPro(cis-4-NH2)][Tic]))	5.1 ± 0.9 nM
CC[C@H](C)[C@@H]1NC(=O)[C@H]([C@@H](C)O)NC(=O)[C@H]2CCCN2C(=O)[C@H]([C@@H](C)CC)NC(=O)[C@H](CCCNC(=N)N)NC(=O)[C@@H](CCCNC(=N)N)NC1=O [Ex. 1, cyclo(-Ile-^DArg-Arg-Ile-^DPro-Thr-)] (cyclo(I[dP]TI[dR]R))	79.7 ± 99.7 nM
CC[C@H](C)[C@@H]1NC(=O)[C@H]([C@@H](C)O)NC(=O)[C@H]2CCCN2C(=O)[C@H](Cc2ccc(O)cc2)NC(=O)[C@H](CCCNC(=N)N)NC(=O)[C@@H](CCCNC(=N)N)NC1=O [Ex. 2, cyclo(-Ile-^DArg-Arg-Tyr-^DPro-Thr-)] (cyclo(I[dR]RY[dP]T))	83.7 ± 77.4 nM
CC[C@H](C)[C@@H]1NC(=O)[C@H]([C@@H](C)O)NC(=O)[C@H]2CCCN2C(=O)[C@H](Cc2c[nH]c3ccccc23)NC(=O)[C@H](CCCNC(=O)c2cnccn2)NC(=O)[C@@H](CCCNC(=N)N)NC1=O [compound 64, cyclo(-Ile-^DArg-Orn(A41)-Trp-^DPro-Thr-)] (cyclo(I[dR][Orn](Pyrazinecarbonyl)W[dP]T))	518 ± 20.9 nM
N=C(N)NCCC[C@@H]1NC(=O)[C@H](Cc2c[nH]c3ccccc23)NC(=O)[C@@H](Cc2ccccc2)NC(=O)[C@H](Cc2ccc(O)cc2)NC(=O)[C@@H]2Cc3ccccc3CN2C(=O)[C@H]2C[C@@H](N)CN2C1=O [compound 28, cyclo(-Tyr-^DPhe-Trp-Arg-^DPro((4R)NH2)-Tic-)] (cyclo(R[dPro(cis-4-NH2)][Tic]Y[dF]W))	20.9 ± 27.3 nM
N=C(N)NCCC[C@@H]1NC(=O)[C@H](Cc2c[nH]c3ccccc23)NC(=O)[C@@H](Cc2ccccc2)NC(=O)[C@H](CCCNC2=NCCCN2)NC(=O)[C@@H]2Cc3ccccc3CN2C(=O)[C@H]2C[C@@H](N)CN2C1=O [compound 77, cyclo(-Orn(A56)-^DPhe-Trp-Arg-^DPro((4R)NH2)-Tic-)] (cyclo(R[dPro(cis-4-NH2)][Tic][Arg(Nω,Nω'-propylene)][dF]W))	181 ± 62.9 nM
N=C(N)NCCC[C@@H]1NC(=O)[C@H](Cc2c[nH]c3ccccc23)NC(=O)[C@@H](Cc2ccccc2)NC(=O)[C@H](Cc2c[nH]c3ccccc23)NC(=O)[C@@H]2C[C@@H](N)CN2C(=O)[C@H]2CCCN2C1=O [compound 45, cyclo(-Trp-^DPhe-Trp-Arg-^DPro-Pro((4R)NH2)—)] (cyclo(R[dP][Pro(4R-NH2)]W[dF]W))	26.9 ± 12.6 nM
CC[C@@H]1NC(=O)[C@H]([C@@H](C)O)NC(=O)[C@H]2CCCN2C(=O)[C@H](Cc2c[nH]c3ccccc23)NC(=O)[C@H](CCCNC(=N)N)NC(=O)[C@@H](CCCNC(=N)N)NC1=O [compound 58, cyclo(-Abu-^DArg-Arg-Trp-^DPro-Thr-)] (cyclo([Abu][dR]RW[dP]T))	330 ± 93.2 nM
N=C(N)NCCC[C@@H]1NC(=O)[C@@H]2Cc3ccccc3CN2C(=O)[C@H]2C[C@@H](N)CN2C(=O)[C@H](CCCNC(=N)N)NC(=O)[C@H](Cc2c[nH]c3ccccc23)NC(=O)[C@@H](Cc2ccccc2)NC1=O [compound 33, cyclo(-Arg-^DPhe-Trp-Arg-^DPro((4R)NH2)-Tic-)] (cyclo(R[dF]WR[dPro(cis-4-NH2)][Tic]))	248 ± 16.5 nM
N=C(N)NCCC[C@@H]1NC(=O)[C@H](Cc2c[nH]c3ccccc23)NC(=O)[C@@H](Cc2ccccc2)NC(=O)[C@H](Cc2c[nH]c3ccccc23)NC(=O)[C@@H]2COCCN2C(=O)[C@H]2CCCN2C1=O [compound 46, cyclo(-Trp-^DPhe-Trp-Arg-^DPro-Mor-)] (cyclo(R[dP][Morpholine(3S-CO)]W[dF]W))	132 ± 53.1 nM
N=C(N)NCCC[C@@H]1NC(=O)[C@H](Cc2c[nH]c3ccccc23)NC(=O)[C@@H](Cc2ccccc2)NC(=O)[C@H](Cn2cccn2)NC(=O)[C@@H]2Cc3ccccc3CN2C(=O)[C@H]2C[C@@H](N)CN2C1=O [Ex. 74, cyclo(-Ala(1Pyraz)-^DPhe-Trp-Arg-^DPro((4R)NH2)-Tic-)] (cyclo(R[dPro(cis-4-NH2)][Tic][Ala(pyrazol-1-yl)][dF]W))	29.9 ± 8.9 nM
CC[C@H](C)[C@@H]1NC(=O)[C@H]([C@@H](C)O)NC(=O)[C@H]2CCCN2C(=O)[C@H](Cc2ccc(C(F)(F)F)cc2)NC(=O)[C@H](CCCNC(=N)N)NC(=O)[C@@H](CCCNC(=N)N)NC1=O [Ex. 72, cyclo(-Ile-^DArg-Arg-Phe(4CF3)-^DPro-Thr-)] (cyclo(I[dR]R[Phe(4-CF3)][dP]T))	4.5 ± 1.1 nM
CC[C@H](C)[C@@H]1NC(=O)[C@H]([C@@H](C)O)NC(=O)[C@H]2CCCCN2C(=O)[C@H](Cc2c[nH]c3ccccc23)NC(=O)[C@H](CCCNC(=N)N)NC(=O)[C@@H](CCCNC(=N)N)NC1=O [compound 14, cyclo(-Ile-^DArg-Arg-Trp-^DPip-Thr-)] (cyclo(I[dR]RW[dPip]T))	0.1 nM
N=C(N)NCCC[C@@H]1NC(=O)[C@H](Cc2c[nH]c3ccccc23)NC(=O)[C@@H](Cc2ccccc2)NC(=O)[C@H](Cc2c[nH]c3ccccc23)NC(=O)[C@@H]2C[C@H](OCc3ccccc3)CN2C(=O)[C@H]2C[C@H](O)CN2C1=O [compound 49, cyclo(-Trp-^DPhe-Trp-Arg-^DPro((4S)OH)-(4S)-Hyp(Bn)-)] (cyclo(R[dHyp][cisHyp](Bn)W[dF]W))	7.6 ± 10.1 nM
CC[C@H](C)[C@@H]1NC(=O)[C@H]([C@@H](C)O)NC(=O)[C@H]2CCCN2C(=O)[C@H](Cc2c[nH]c3ccccc23)NC(=O)[C@H](CCCNC(=N)N)NC(=O)[C@@H](CCCNC(N)=O)NC1=O [compound 13, cyclo(-Ile-^DCit-Arg-Trp-^DPro-Thr-)] (cyclo(I[dCit]RW[dP]T))	473 ± 68.9 nM
CC[C@H](C)[C@@H]1NC(=O)[C@@H]2[C@@H](O)CCN2C(=O)[C@H]2CCCN2C(=O)[C@H](Cc2ccc3ccccc3c2)NC(=O)[C@H](CCCNC(=N)N)NC(=O)[C@@H](CCCNC(=N)N)NC1=O [compound 53, cyclo(-Ile-^DArg-Arg-2Nal-^DPro-Pro((3S)OH)—)] (cyclo([2Nal][dP][Pro(3S-OH)]I[dR]R))	76.8 ± 47.9 nM
CCCC[C@@H]1NC(=O)[C@H]([C@@H](C)O)NC(=O)[C@H]2CCCN2C(=O)[C@H](Cc2c[nH]c3ccccc23)NC(=O)[C@H](CCCNC(=N)N)NC(=O)[C@@H](CCCNC(=N)N)NC1=O [compound 61, cyclo(-Nle-^DArg-Arg-Trp-^DPro-Thr-)] (cyclo([Nle][dR]RW[dP]T))	2.8 ± 1 nM
N=C(N)NCCC[C@@H]1NC(=O)[C@H](Cc2c[nH]c3ccccc23)NC(=O)[C@@H](Cc2ccccc2)NC(=O)[C@H](CCNC(=N)N)NC(=O)[C@@H]2Cc3ccccc3CN2C(=O)[C@H]2C[C@@H](N)CN2C1=O [compound 36, cyclo(-Agb-^DPhe-Trp-Arg-^DPro((4R)NH2)-Tic-)] (cyclo([Agb][dF]WR[dPro(cis-4-NH2)][Tic]))	452 ± 15.8 nM
CC[C@H](C)[C@@H]1NC(=O)[C@H](CCO)NC(=O)[C@H]2CCCN2C(=O)[C@H](Cc2c[nH]c3ccccc23)NC(=O)[C@H](CCCNC(=N)N)NC(=O)[C@@H](CCCNC(=N)N)NC1=O [Ex. 8, cyclo(-Ile-^DArg-Arg-Trp-^DPro-hSer-)] (cyclo(I[dR]RW[dP][hSer]))	347 ± 10.3 nM
CC[C@H](C)[C@@H]1NC(=O)[C@H]([C@@H](C)O)NC(=O)[C@H]2CCCN2C(=O)[C@H](CCCNC(=N)N)NC(=O)[C@H](Cc2c[nH]c3ccccc23)NC(=O)[C@@H](CCCNC(=N)N)NC1=O [Ex. 17, cyclo(-Ile-^DArg-Trp-Arg-^DPro-Thr-)] (cyclo(I[dR]WR[dP]T))	62.5 ± 1.8 nM
CC[C@H](C)[C@@H]1NC(=O)[C@H]([C@@H](C)O)NC(=O)[C@H]2CCCN2C(=O)[C@H](Cc2cccc3ccccc23)NC(=O)[C@H](CCCNC(=N)N)NC(=O)[C@@H](CCCNC(=N)N)NC1=O [compound 16, cyclo(-Ile-^DArg-Arg-1Nal-^DPro-Thr-)] (cyclo([1Nal][dP]TI[dR]R))	17.9 ± 2.6 nM
CC[C@H](C)[C@@H]1NC(=O)[C@H]([C@@H](C)O)NC(=O)[C@H]2CCCN2C(=O)[C@H](Cc2c[nH]c3ccccc23)NC(=O)[C@H](CCCNCc2nccn2C)NC(=O)[C@@H](CCCNC(=N)N)NC1=O [Ex. 69, cyclo(-Ile-^DArg-Orn(Ar7)-Trp-^DPro-Thr-)] (cyclo(I[dR][X4]W[dP]T))	337 ± 92.6 nM
CC[C@H](C)[C@@H]1NC(=O)[C@H]([C@@H](C)O)NC(=O)[C@H]2CCCN2C(=O)[C@H](Cc2c[nH]c3ccccc23)NC(=O)[C@H](CCNC(=N)N)NC(=O)[C@@H](CCCNC(=N)N)NC1=O [Ex. 24, cyclo(-Ile-^DArg-Agb-Trp-^DPro-Thr-)] (cyclo([Agb]W[dP]TI[dR]))	22.3 ± 29.3 nM
